Measured values as given in PMC8070394, “Determination of Colistin in Contents Derived from Gastrointestinal Tract of Feeding Treated Piglet and Broiler” (Antibiotics, 2021).

Columns and labels:
[1] = Colistin in contents of swine gastrointestinal segments and feces after feeding treatment (UPLC-MS/MS); format: in vivo, piglets (Duroc × Landrace × Large white); details: n = 4
Protocol: (§1) Eight weaned piglets (Duroc × Landrace × Large white) 3~4 weeks of age were used in a 14-day feeding trial. First, all piglets were fed with the base diet (Table S1) for an adapting period of 6 days. Subsequently, four piglets fed the base diet were kept as untreated controls, and the other four piglets were fed the base diet, which was supplemented with colistin sulphate at 20 mg/kg of body weight for 14 consecutive days. Thereafter, feces were collected, and the piglets were slaughtered to obtain contents from the swine gastrointestinal segments, including stomach, duodenum, jejunum and cecum. The sixteen cobb broilers 1–3 days in age were selected and fed with a drug-free balanced diet (Table S2) during the 14-day adaption period and the subsequent treatment period. Then, eight broilers were kept as untreated controls, and the other eight broilers were fed with colistin at 20 mg/kg of body weight for 14 consecutive days. At the end of the trial, treated and untreated animals were sacrificed, and the contents derived from the gizzard, proventriculus, duodenum, jejunum, ileum and cecum were recovered. All samples were stored at −80 °C before being analyzed.
(§2) The extraction procedure was based on the methods developed by Fu with some modifications. Briefly, 2 g of samples was lyophilized to dryness and extracted twice with 10 mL of 10% trichloroacetic acid: acetonitrile (40:60, v/v), and the combined extraction solution was adjusted to pH 9.0. Thereafter, the extraction solution was applied to Oasis WCX SPE cartridges which were prewashed with 3 mL of methanol and 3 mL of water. The cartridges were then rinsed with 3 mL of water, 3 mL of methanol and 3 mL of 5% formic acid in water. Eventually, the colistin was eluted with 5 mL of 20% formic acid in methanol. The eluent was evaporated to dryness by vacuum centrifugation at 50 °C and resuspended in 500 μL of deionized water prior to measurement using an UPLC–MS/MS system.
(§3) Chromatography of colistin was conducted with an UltiMate 3000 UPLC system (Thermo Fisher, San Jose, CA, USA) equipped with an Acquity UPLC BEH C18 column (2.1 mm × 100 mm; 1.7 µm particle size; Waters, Milford, MA, USA). The mobile phase A was 0.2% formic acid, 5% acetonitrile in H2O; B was 100% acetonitrile. The colistin was resolved with a linear gradient starting from 95% A solvent to 70% B solvent over 5 min and then to 5% A at 10 min, at a flow rate of 200 µL/min.
(§4) MS spectra were acquired at positive ionization mode with a hybrid quadrupole-obitrap mass spectrometer (Q Exactive, Thermo Fisher, San Jose, CA, USA). The sheath gas flow rate was 25 mL/min; the auxiliary gas flow rate was 15 mL/min; the spray voltage was 3.2 kV; and the temperature of the capillary tube was set to 320 °C. One microscan was used for data acquisition. The resolution settings were full MS target 70,000 and MS/MS target 17,500; normalized CE 20% and 22% were employed for colistin A and colistin B, respectively. Data manipulations were employed using Xcalibur version 4.0 software. Quantitative analyses were conducted in the selective reaction monitoring (SRM) scan mode. The two most abundant fragment ions were selected from each analyte for analysis (Figure S1). The transitions monitored and approximate chromatographic retention times (tR) were as follows: colistin A ([M + 3H]^3+), m/z 390.60 > 101.0696, 241.1860, tR = 7.30 min; colistin B ([M + 3H]^3+), m/z 385.90 > 101.0696, 227.1710, tR = 6.85 min. The mass tolerance was set to 5 ppm for fragment ions.
(§5) Colistin-treated samples and controls were subject to analysis using the proposed method, including stomach, duodenum, jejunum and cecum content samples and feces samples recovered from 4 treated and 4 untreated piglets; gizzard, proventriculus, duodenum, jejunum, ileum and cecum content samples and feces samples from 8 treated and 8 control cobb broilers. […]

[2] = pigs, single oral administration, cited from earlier work
From the text: Nutrients and drugs are known to be mainly absorbed in the small intestine of animals and humans after oral administration. The dosing regimen of colistin in clinical use depends upon the pharmacokinetics and pharmacodynamics of colistin in humans. Meanwhile, the absorption of oral drugs in the digestive tract is crucial for the dosing regimen as well. Unlike for human medicine, a few studies have been conducted in animals to evaluate the pharmacokinetics and pharmacodynamics of colistin following oral administration. One study has measured colistin in the whole intestin ...

[3] = Colistin in contents of broiler gastrointestinal segments and feces after feeding treatment (UPLC-MS/MS); format: in vivo, cobb broilers; details: broilers fed colistin 20 mg/kg body weight for 14 days
Protocol: as §1, §2, §3, §4, §5

average amount of colistin in content recovered from the cecum, based on dried weight ([1]; piglets fed colistin sulphate 20 mg/kg body weight for 14 days, cecum content, dried weight): ~ 3300 ng/g
concentration of colistin in content from the cecum ([1]; piglets fed colistin sulphate 20 mg/kg body weight for 14 days, cecum content, wet weight, UPLC-MS/MS, mean ± standard deviation): 398.3 ± 161.2 ng/g
average concentration of colistin in samples from the duodenum ([1]; piglets fed colistin sulphate 20 mg/kg body weight for 14 days, duodenum content, UPLC-MS/MS): ~ 30 ng/g
average amount of colistin in feces, based on dried weight ([1]; piglets fed colistin sulphate 20 mg/kg body weight for 14 days, feces, dried weight): ~ 3300 ng/g
average concentration of colistin in samples from the jejunum ([1]; piglets fed colistin sulphate 20 mg/kg body weight for 14 days, jejunum content, UPLC-MS/MS): ~ 30 ng/g
average concentration of colistin in feces samples ([1]; piglets fed colistin sulphate 20 mg/kg body weight in diet for 14 consecutive days, feces, wet weight, UPLC-MS/MS, mean): approximately 1248.3 ng/g
decrease of the amount of colistin from the cecum to feces [3]: at least 5 fold
estimate of colistin in samples from the cecum, regardless of the moisture ([3]; cecum content, dried weight, mean ± standard deviation, n = 8): 15766.0 ± 9249.2 ng/g
average concentration of colistin, cecum ([3]; cecum content, wet weight, mean, n = 8): 4882.9 ng/g
average concentration of colistin, duodenum ([3]; duodenum content, wet weight, mean, n = 8): 383.7 ng/g
estimate of colistin in samples from feces, regardless of the moisture ([3]; feces, dried weight, mean ± standard deviation, n = 8): 823.4 ± 616.4 ng/g
average concentration of colistin in feces samples ([3]; feces, wet weight, mean, n = 8): 147.7 ng/g
average concentration of colistin, gizzard ([3]; gizzard content, wet weight, mean, n = 8): 1145.7 ng/g
average concentration of colistin, ileum ([3]; ileum content, wet weight, mean, n = 8): 2056.1 ng/g
average concentration of colistin, jejunum ([3]; jejunum content, wet weight, mean, n = 8): 1572.3 ng/g
average concentration of colistin, proventriculus ([3]; proventriculus content, wet weight, mean, n = 8): 448.3 ng/g
Substance: Colistin
peak concentration of colistin in samples from the duodenum to ileum, highest level ([2]; HPLC-Fluorescence after derivatization): ~ 90,000 ng/g
colistin in samples from duodenum to ileum after 4 h ([2]; after 4 h, HPLC-Fluorescence): no colistin was detected
